According to patent publication US20210299156A1 (priority 2020, published 2021):
Read-outs that look alike come from different tables or passages of the source.

Key:
SARS-CoV-2 [1] = format: cell-based; conditions: for EC50: MOI 0.1
SARS-CoV-2 [2] = format: cell-based; conditions: EPIAIRWAY tissue pretreated with 2.5, 25, 250 μM; MOI 0.1
SARS-CoV-2 [3] = conditions: VERO E6 cells
[4] = target: plasma membrane nucleolin (Homo sapiens, UniProt P19338); design: key: 1: Indicates a good plasma membrane nucleolin-binding GRO.; 2: Indicates a nucleolin control (non-plasma membrane nucleolin binding); conditions: cited from earlier work
Sequence of plasma membrane nucleolin (P19338 whole entry): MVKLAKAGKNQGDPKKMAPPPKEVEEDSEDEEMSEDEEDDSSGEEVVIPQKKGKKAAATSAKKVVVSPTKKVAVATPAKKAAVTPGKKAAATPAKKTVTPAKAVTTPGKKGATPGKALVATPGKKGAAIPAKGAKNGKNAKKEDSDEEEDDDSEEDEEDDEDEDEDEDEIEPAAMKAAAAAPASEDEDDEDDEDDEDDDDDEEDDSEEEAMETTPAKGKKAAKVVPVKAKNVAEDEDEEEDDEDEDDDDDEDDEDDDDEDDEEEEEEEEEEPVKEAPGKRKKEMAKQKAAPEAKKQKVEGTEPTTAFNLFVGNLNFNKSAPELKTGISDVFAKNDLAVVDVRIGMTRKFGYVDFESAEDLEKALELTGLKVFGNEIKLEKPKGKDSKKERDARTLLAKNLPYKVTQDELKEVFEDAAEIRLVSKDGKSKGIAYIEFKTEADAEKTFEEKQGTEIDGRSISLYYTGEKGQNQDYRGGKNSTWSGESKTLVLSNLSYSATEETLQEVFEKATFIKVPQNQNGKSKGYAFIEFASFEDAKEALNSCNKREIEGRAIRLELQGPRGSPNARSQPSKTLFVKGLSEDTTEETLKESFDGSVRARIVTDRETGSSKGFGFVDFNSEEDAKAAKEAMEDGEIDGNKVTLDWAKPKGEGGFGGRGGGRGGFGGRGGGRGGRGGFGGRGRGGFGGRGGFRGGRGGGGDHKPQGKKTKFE

SARS-CoV-2 [5] = format: in vivo, K18-hACE2 mice; conditions: 12 mg/kg per day intraperitoneal osmotic pump; 7 days after virus challenge
SARS-CoV-2 [6] = format: cell-based; conditions: EPINASAL tissue pretreated with 2.5, 25, 250 μM; MOI 0.1
SARS-CoV-2 [7] = format: cell-based; conditions: MOI 0.1
SARS-CoV-2 [8] = system: SARS-CoV-2; design: species or system K18-hACE2 mice; conditions: mouse, in vivo
[9] = PEP: drug 4 hours after virus challenge
[10] = PrEP: drug 4 hours before virus challenge

## AS1411: GRO nucleolin-binding DNA aptamer, SEQ ID NO:10, ggtggtggtg gttgtggtgg tggtgg
SARS-CoV-2 [1]; 2.5 μM and 20 μM, EPIAIRWAY tissue, FIG. 29
  protective effect compared to the vehicle group: reduction of virus
SARS-CoV-2 [1]; 72 Hours Post-Infection, EPIAIRWAY tissue
  EC50: 942 nM
SARS-CoV-2 [1]; 96 Hours Post-Infection, EPIAIRWAY tissue
  EC50: 1410 nM
SARS-CoV-2 [1]; 120 Hours Post-Infection, EPIAIRWAY tissue
  EC50: 650 nM
SARS-CoV-2 [1]; EPIAIRWAY tissue TCID50/ml, FIG. 27
  interference between AS1411 and remdesivir in combination: do not interfere with each other
SARS-CoV-2 [1]; EPIAIRWAY tissue TCID50/ml, FIG. 28
  interference between AS1411 and dexamethasone in combination: do not interfere with each other
SARS-CoV-2 [2]
  reduction in viral titer: ≤ 5 logs fold
SARS-CoV-2 [3]; MOI 0.01, 72 hours
  concentration at which inhibition of SARS-CoV-2 virus-induced syncytium formation begins: ≥ 0.625 µM
  dose at which cytopathic effects of SARS-CoV-2 are markedly reduced: ≥ 0.625 µM
SARS-CoV-2 [3]; from 0.625 μM
  cytotoxicity: without cytotoxicity
[4]
  plasma membrane nucleolin binding (footnote designation): GRO26B^1
SARS-CoV-2 [5]
  survival rate: 100%
EPIAIRWAY™ tissue
  toxicity in EPIAIRWAY model: not toxic
SARS-CoV-2 [6]
  reduction in viral titer: ≤ 3.5 logs fold
SARS-CoV-2 [7]; [9]
  EC50: 1500 nM
  EC90: 3200 nM
SARS-CoV-2 [7]; [10]
  EC50: 986 nM
  EC90: 2160 nM
SARS-CoV-2 [8]
  inhibiting the virus (TCID50/ml): effective for inhibiting the virus in the nasal passage and kidneys of the mice, although not as effectively as in the lungs
  inhibiting the virus in the brain (TCID50/ml): not effective for inhibiting the virus in the brain
  inhibiting the virus in the lungs (TCID50/ml): effective for inhibiting the virus in the lungs
